Reference: patent US20160237052A1, “Histamine-3 Receptor Antagonists” (MediSynergics, LLC, priority 2015, published 2016)
pKi: −log10 of the molar value. Like-named read-outs stand apart in the source and are kept apart here.

Assays:
SERT = SERT (Homo sapiens, UniProt P31645); assay: Serotonin reuptake activity (SERT), PDSP; format: binding; settings: for inhibition at 10 µM: 10 μM drug concentration; for pKi: calculated Ki
H1 = H1 (Homo sapiens, UniProt P35367); assay: Histamine H1 receptor binding (NIMH PDSP); settings: for inhibition at 10 µM: read-out: Inhibition (% at 10 μM)
H1, sequence (P35367 whole entry): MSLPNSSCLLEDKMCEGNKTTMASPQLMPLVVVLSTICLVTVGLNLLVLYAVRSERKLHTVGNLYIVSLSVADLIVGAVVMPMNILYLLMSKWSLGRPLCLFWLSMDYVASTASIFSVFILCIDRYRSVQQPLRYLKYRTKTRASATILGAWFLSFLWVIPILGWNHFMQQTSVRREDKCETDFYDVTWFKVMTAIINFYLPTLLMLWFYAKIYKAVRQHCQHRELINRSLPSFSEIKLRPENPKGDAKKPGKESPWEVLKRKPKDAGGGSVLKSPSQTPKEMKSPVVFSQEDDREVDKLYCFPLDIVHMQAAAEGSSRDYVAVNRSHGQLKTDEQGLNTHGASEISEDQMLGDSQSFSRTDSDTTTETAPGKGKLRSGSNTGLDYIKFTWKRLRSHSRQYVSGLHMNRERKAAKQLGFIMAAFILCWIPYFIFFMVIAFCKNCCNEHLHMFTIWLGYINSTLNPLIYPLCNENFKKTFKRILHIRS
Method: The compounds from the above Examples were tested for activity vs. histamine receptor subtypes (i.e., H1, H2, H3), at an initial concentration of 10 μM. Binding activity measurement was performed by the NIMH Psychoactive Drug Screening Program (PDSP) at the University of North Carolina Chapel Hill, N.C. […] Data (e.g., H3antagonist activity) may also be generated using a commercially available kit from Invitrogen/Thermo Fisher Scientific Inc. (Tango™ H3-bla U2OS DA Assay Kit).

H3 = H3 (UniProt Q9Y5N1); assay: Histamine H3 receptor binding (NIMH PDSP); settings: H3 receptor subtype
Method: The compounds from the above Examples were tested for activity vs. histamine receptor subtypes (i.e., H1, H2, H3), at an initial concentration of 10 μM. Binding activity measurement was performed by the NIMH Psychoactive Drug Screening Program (PDSP) at the University of North Carolina Chapel Hill, N.C. The procedures employed by the PDSP are described in the NIMH PDSP Assay Protocol Book Version II (see, http://pdsp.med.unc.edu/PDSP %20Protocols %2011%202013-03-28.pdf). Data (e.g., H3antagonist activity) may also be generated using a commercially available kit from Invitrogen/Thermo Fisher Scientific Inc. (Tango™ H3-bla U2OS DA Assay Kit). Data for serotonin reuptake activity (SERT, % inhibition at 10 μM drug concentration; calculated Ki) were also generated by PDSP.

SERT, sequence (P31645 whole entry, species assumed): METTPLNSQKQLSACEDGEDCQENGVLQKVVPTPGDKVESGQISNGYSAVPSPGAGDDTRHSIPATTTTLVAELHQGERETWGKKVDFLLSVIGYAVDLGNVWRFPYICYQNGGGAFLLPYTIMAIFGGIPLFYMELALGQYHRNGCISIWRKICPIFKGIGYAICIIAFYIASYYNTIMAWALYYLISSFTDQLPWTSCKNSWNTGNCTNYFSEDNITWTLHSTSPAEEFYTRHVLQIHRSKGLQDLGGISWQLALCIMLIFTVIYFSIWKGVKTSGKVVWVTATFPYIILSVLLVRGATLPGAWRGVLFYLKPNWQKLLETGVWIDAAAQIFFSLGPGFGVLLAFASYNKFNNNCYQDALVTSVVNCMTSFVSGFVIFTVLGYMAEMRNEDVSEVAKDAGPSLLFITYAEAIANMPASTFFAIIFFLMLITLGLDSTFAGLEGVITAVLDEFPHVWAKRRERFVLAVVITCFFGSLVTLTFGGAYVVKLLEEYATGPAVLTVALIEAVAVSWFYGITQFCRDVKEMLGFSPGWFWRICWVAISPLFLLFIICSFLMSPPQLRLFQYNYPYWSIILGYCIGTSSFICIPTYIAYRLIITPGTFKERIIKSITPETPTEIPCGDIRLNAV

inhibition at 10 µM (H1; H1 receptor subtype, 10 μM) [%] | pKi (H1; H1 receptor subtype, read-out: Ki) | SMILES | inhibition at 10 µM (SERT) [%] | pKi (SERT) | pKi (H3) | Inhibition (% at 10 μM) (H3) [%] | pKi (H1) | inhibition at 10 µM (H1) [%]
89.8 | 6.84 | CN(C)CCCC1(c2ccc(F)cc2)OCc2cc(CN3CCN(C)CC3)ccc21 (stereo not drawn) [Example 2, 3-[5-((4-methylpiperazin-1-yl)methyl)-1-(4-fluorophenyl)-1,3-dihydro-2-benzofuran-1-yl]-N,N-dimethylpropan-1-amine] | 99.3 | 7.51 | 6.81 | 89.8 |  | 
 |  | CN(C)CCCC1(c2ccc(F)cc2)OCc2cc(CN3CCCCC3)ccc21 (stereo not drawn) [Example 1] | 98.8 | 7.54 | 7.70 | 99.6 | 7.00 | 89.9
